{"source": "paper PMC11856108", "about": "“Capsaicin (But Not Other Vanillins) Enhances Estrogen Binding to Its Receptor: Implications for Power Sports and Cancers” (Life, 2025)", "key": {"insulin receptor (IR)": {"biological_target": "insulin receptor (IR) (Homo sapiens, UniProt P06213)", "sequence (P06213 28-1382, species assumed)": "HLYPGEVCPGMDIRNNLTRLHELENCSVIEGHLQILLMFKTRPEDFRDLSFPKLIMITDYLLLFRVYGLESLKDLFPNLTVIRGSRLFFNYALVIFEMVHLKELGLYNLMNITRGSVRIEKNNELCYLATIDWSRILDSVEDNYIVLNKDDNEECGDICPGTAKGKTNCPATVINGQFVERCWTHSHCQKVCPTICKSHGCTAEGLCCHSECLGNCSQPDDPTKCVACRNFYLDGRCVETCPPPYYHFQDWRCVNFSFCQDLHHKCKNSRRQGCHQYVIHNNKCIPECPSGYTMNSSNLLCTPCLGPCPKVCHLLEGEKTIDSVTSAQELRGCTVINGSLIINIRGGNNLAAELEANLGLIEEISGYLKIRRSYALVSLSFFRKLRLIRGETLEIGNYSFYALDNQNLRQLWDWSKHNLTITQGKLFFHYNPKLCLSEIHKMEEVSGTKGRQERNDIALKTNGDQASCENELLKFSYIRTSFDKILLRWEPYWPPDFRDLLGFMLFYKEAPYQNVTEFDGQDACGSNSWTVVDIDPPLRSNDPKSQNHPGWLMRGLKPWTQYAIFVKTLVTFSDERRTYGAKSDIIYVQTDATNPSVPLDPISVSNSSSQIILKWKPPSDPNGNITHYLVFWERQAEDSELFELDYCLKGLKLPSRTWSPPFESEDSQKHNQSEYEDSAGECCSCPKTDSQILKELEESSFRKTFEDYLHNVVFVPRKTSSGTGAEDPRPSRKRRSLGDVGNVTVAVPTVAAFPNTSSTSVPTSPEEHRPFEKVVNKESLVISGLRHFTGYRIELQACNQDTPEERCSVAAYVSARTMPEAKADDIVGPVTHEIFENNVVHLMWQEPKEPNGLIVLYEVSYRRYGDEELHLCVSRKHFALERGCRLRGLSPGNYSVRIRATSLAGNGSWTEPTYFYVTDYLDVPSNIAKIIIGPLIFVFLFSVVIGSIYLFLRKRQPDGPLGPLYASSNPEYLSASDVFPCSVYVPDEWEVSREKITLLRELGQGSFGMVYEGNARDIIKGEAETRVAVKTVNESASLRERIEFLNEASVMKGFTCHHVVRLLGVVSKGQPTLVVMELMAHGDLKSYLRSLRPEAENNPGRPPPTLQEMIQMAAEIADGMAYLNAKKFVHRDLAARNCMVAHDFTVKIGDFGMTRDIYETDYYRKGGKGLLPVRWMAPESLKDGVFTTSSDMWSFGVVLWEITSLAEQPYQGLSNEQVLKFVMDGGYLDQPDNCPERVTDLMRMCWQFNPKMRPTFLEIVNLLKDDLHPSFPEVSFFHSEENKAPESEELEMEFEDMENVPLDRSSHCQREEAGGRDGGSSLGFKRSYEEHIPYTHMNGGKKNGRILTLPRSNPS", "experiment": "Binding to the insulin receptor by ultraviolet spectroscopy", "details": "UV spectroscopy", "description": "(§1) UV spectroscopy in a crystal plate was used to investigate whether CAP has specificity for estrogen alone or whether it can bind to other naturally occurring hormones. To start, CAP was dissolved in a 1:1 solution of water to ethanol at 1 mg/mL ( 3.27×10^−3 M ) and then diluted by thirds eight times. Next, the hormones were dissolved in a 1:1 solution of water to ethanol at a 1/100 dilution. An amount of 50 μL of each CAP dilution was added to 3 wells of a crystal plate, with one well serving as the control, with another 50 μL of 1:1 water to ethanol added, and the other two serving as experimental duplicates, with 50 μL of the prepared hormone solution added. Then, two additional wells were prepared to serve as controls: one containing 100 μL of 1:1 water to ethanol and the other containing 50 μL of prepared hormone solution and 50 μL of 1:1 water to ethanol. Finally, the plate was incubated for 1 h and read in a Spectramax UV-VIS scanning spectrophotometer, spanning wavelengths from 190 to 400 nm. Data analysis involved the subtraction of observed absorbance values from expected absorbance values generated from the control wells ([CAP + 1:1 solution] + [hormone + 1:1 solution] − [1:1 solution]) and plotting them as a function of CAP concentration. Because the solvent (1:1 solution of water–ethanol) was used as a control and subtracted from all wells, the resulting data reflected only the absorbances of the solute compounds. Since each compound has a different lambda maximal absorbance, analysis of the resulting data required finding one common wavelength at which the additions and subtractions of the spectra could be carried out and at which the absorbance of each compound was maximized.\n[17, 19, 20, 21, 22, 23]. […] Because CAP binds to INS, it was possible that it might antagonize INS binding to its receptor. […] Two types of ultraviolet spectroscopy experiments were performed. In one, INS (1 µM) and the IR were kept constant and the concentration of CAP increased from 0.1 µM to 100 µM. In the other, the CAP (25 µM) and IR were kept constant and the concentration of INS increased from 10 nM to 10 µM. In neither experiment was any significant change in the INS binding curve observed.\nCAP did bind to the ESR1 with what appears to be a high affinity (Kd = 0.9 µM) and a lower affinity (Kd = 10 µM) site. […] Other vanilloid compounds also bound to the ESR1 but with lower affinity than CAP (Figure 6). None bound to the IR."}, "[1]": {"experiment": "Binding to steroid hormone by UV spectroscopy", "description": "as §1\nExperiments were also performed to test whether the enhancement or antagonism observed in estradiol binding to the ESR1 might be due to vanilloid compounds binding directly to estradiol or to related steroidal hormones, perhaps protecting them from oxidation or forming a complex that prevented the estradiol binding to its receptor. No vanilloid compound bound to a measurable degree to estradiol or any other steroidal hormone tested."}, "T1DM rats": {"system": "T1DM rats", "set-up": "method as in PMID 28230360", "details": "cited from earlier work"}, "Rats (female)": {"system": "Rats (female)", "set-up": "method as in PMID 29294454", "details": "cited from earlier work"}, "[2]": {"biological_target": "insulin (human recombinant) (Homo sapiens, UniProt P01308)", "sequence (P01308 25-54 limits assumed)": "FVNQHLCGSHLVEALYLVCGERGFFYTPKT", "sequence (P01308 90-110 limits assumed)": "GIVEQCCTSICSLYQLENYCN", "experiment": "Binding to insulin by ultraviolet spectroscopy", "details": "UV spectroscopy"}}, "note": "Where two headings read alike, the source gives them in different places.", "data": [{"smiles": "COc1cc(CNC(=O)CCCC/C=C/C(C)C)ccc1O", "note": "[Capsaicin, trans-8-methyl-N-vanillyl-6-nonenamide]", "values": [{"measurement": "binding to the insulin receptor (in words)", "setting": "insulin receptor (IR); listed as CAP", "result": "did not bind significantly to the IR except at concentrations well beyond those physiologically possible"}, {"measurement": "binding to the insulin receptor (in words)", "setting": "insulin receptor (IR); listed as capsaicin", "result": "not the insulin receptor"}, {"measurement": "Binding (Kd) 4-Androstene-3,17-dione", "setting": "[1]", "result": "No binding"}, {"measurement": "Binding (Kd) 5-Pregnan-3β-OL-2O-one", "setting": "[1]", "result": "No binding"}, {"measurement": "Binding (Kd) Estradiol", "setting": "[1]", "result": "No binding"}, {"measurement": "Binding (Kd) Estriol", "setting": "[1]", "result": "No binding"}, {"measurement": "Binding (Kd) Progesterone", "setting": "[1]", "result": "No binding"}, {"measurement": "Binding (Kd) Estradiol", "setting": "[1]; listed as capsaicin", "result": "did not bind directly to estradiol"}, {"measurement": "Capsaicin Upregulates", "setting": "T1DM rats", "result": ">Serum INS (CAP 6 mg/kg)"}, {"measurement": "Downregulates or Inhibits", "setting": "T1DM rats", "result": ">Fasting blood glucose levels and serum level of glycosylated protein"}, {"measurement": "Cancer-Related Effects", "setting": "Rats (female)", "result": ">Blocks formation of nitrosomethylurea-induced mammary tumors"}, {"measurement": "Downregulates or Inhibits", "setting": "Rats (female)", "result": ">Decreased antioxidant enzymes"}, {"measurement": "Upregulates", "setting": "Rats (female)", "result": ">Increases estradiol, progesterone, CEA and malondialdehyde levels"}, {"measurement": "Kd", "setting": "[2]; Binding (Kd) Insulin, Table 1", "result": 4, "unit": "µM"}, {"measurement": "binding to insulin (in words)", "setting": "[2]", "result": "bound to insulin"}, {"measurement": "Kd", "setting": "[2]; binding constant to INS", "result": "~4", "unit": "µM"}]}]}
